Among the data in patent US12391679B2, “Benzamide-substituted bicyclic imidazo- and pyrazolo-fused -pyridine, -pyrimide, and -pyridazine compounds for treatment of inflammatory diseases” (ONCO3R Therapeutics BV, priority 2019, dated 2025) are IC50 values, retold here.

Format in all cases: biochemical
In one test the target is T1, SIK3 (Homo sapiens, UniProt Q9Y2K2).
T1 construct: purchased SignalChem S12-11G-100
Kind of test: ADP-Glo kinase assay, SIK3. The protocol: (§1) The ADP-Glo™ kinase assay is a luminescent technology assay which measures the ADP formed from a kinase reaction. […] In a second step the kinase reactions are terminated and all the remaining ATP is depleted. In a final step the ADP is converted into ATP and this newly synthesized ATP is measured by using a luciferase/luciferin reaction. The generated light is measured using an Envision plate reader, wherein the luminescent signal obtained positively correlates with the kinase activity.
(§2) 1% DMSO and 10 μM staurosporine final concentrations are used as negative and positive controls.
(§3) 2 μL enzyme-substrate mixture is added to the assay plates.
(§4) The reaction is started by adding 2 μL diluted ATP on the assay plates. Plates are centrifuged for a few seconds at 1000 rpm and gently shaken for […] followed by an incubation at RT for 120 min.
(§5) The reactions are stopped and the unconsumed ATP is depleted by adding 5 μL ADP-Glo Reagent (Promega, Cat #V9120) to the reaction. The plates are centrifuged for a few seconds at 1000 rpm and incubated at RT for 40 min (ATP depletion).
(§6) The ADP is converted to ATP and luciferase and luciferin is introduced to detect ATP by adding 10 μL Kinase Detection Reagent (Promega, Cat #V913B+V914r) to the reaction. The plates are centrifuged for a few seconds at 1000 rpm and incubated at RT for 30 min (ADP detection).
(§7) Luminescence is measured on an Envision plate reader (PerkinElmer Inc.).

The next test has as its target T2, SIK2 (Homo sapiens, UniProt Q9H0K1).
T2 construct: purchased ThermoFisher Scientific PV4792
The test can be described thus: ADP-Glo kinase assay, SIK2. The protocol: as §1, §2, §3, §4, §5, §6, §7
Background: ADP-Glo turns the ADP formed in a reaction into a luminescent signal.

The target of a further test is T3, SIK1 (Homo sapiens, UniProt P57059).
T3 construct: purchased Carna Biosciences 02-131
T3 sequence (P57059 whole entry): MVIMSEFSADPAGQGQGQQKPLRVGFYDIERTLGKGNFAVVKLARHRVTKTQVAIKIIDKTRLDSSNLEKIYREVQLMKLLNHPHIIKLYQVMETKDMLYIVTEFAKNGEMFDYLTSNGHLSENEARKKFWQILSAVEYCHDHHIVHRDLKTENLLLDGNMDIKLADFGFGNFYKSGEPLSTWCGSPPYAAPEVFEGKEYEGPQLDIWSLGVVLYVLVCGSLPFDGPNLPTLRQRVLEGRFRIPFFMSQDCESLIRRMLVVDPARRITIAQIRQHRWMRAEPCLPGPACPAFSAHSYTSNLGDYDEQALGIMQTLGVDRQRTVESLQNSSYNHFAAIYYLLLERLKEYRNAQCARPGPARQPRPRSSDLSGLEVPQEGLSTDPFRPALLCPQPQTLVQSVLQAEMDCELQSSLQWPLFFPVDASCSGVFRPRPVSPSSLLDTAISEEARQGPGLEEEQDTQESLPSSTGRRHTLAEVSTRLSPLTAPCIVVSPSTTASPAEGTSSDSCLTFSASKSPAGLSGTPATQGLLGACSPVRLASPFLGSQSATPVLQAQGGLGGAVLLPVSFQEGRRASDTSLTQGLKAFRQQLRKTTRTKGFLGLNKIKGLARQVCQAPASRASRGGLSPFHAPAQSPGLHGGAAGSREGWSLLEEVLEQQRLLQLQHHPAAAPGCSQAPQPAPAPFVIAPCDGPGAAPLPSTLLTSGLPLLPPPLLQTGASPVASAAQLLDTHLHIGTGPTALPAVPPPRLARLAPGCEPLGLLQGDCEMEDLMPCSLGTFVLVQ
Kind of test: ADP-Glo kinase assay, SIK1. The protocol:
as §1, §2, §3, §4, §5, §6, §7

By IC50 is commonly meant the concentration that gives 50% inhibition.

T1 sequence (Q9Y2K2 59-365 limits assumed): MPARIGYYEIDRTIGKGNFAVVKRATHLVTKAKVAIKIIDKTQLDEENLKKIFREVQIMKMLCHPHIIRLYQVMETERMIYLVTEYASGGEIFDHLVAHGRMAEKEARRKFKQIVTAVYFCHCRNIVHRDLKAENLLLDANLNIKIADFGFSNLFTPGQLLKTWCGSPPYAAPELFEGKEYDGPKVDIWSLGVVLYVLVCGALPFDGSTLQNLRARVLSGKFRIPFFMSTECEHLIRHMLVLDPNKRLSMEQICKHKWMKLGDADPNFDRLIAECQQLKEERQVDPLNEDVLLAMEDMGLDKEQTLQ
T2 sequence (Q9H0K1 whole entry): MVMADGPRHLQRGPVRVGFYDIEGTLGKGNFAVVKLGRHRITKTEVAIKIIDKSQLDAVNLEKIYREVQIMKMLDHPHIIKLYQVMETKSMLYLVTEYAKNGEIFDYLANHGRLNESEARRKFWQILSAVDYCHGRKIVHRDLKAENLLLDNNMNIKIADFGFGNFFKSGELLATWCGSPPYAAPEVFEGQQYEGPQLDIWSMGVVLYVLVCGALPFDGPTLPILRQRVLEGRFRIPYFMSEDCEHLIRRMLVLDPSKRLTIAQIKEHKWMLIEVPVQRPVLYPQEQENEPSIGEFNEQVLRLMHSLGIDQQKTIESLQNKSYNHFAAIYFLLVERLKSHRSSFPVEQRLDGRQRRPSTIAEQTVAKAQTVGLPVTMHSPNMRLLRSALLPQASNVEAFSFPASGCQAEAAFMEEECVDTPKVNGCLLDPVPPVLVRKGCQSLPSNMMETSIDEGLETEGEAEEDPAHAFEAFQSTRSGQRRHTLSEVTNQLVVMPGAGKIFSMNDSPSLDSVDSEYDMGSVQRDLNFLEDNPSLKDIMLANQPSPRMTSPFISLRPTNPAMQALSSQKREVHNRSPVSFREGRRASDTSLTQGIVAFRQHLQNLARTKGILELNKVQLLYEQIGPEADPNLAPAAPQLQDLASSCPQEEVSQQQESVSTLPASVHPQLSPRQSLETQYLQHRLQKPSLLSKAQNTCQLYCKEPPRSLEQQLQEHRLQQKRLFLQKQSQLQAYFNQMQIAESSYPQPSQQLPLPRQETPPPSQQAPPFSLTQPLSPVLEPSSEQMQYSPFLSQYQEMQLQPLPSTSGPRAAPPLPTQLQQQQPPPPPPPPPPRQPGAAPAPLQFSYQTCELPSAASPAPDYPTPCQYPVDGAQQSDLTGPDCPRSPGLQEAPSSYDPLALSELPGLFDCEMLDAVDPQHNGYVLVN

In the case of `C=CCC(C#N)(CC=C)c1ccn2c(-c3cc(OC)c(C(=O)NC4CC4)c(OC(F)F)c3)cnc2c1` [Cpd 36, 4-[7-(1-allyl-1-cyano-but-3-enyl)imidazo[1,2-a]pyridin-3-yl]-N-cyclopropyl-2-(difluoromethoxy)-6-methoxy-benzamide], the values for the IC50 against SIK3, against SIK2 and against SIK1 were 10 to 100 nM, greater than 500 nM and greater than 500 nM, respectively.
As to `COc1cc(-c2cnc3cc(C4CCOCC4)ccn23)cc(OC)c1C(=O)NCC(F)(F)F` [Cpd 37, 2,6-dimethoxy-4-(7-tetrahydropyran-4-ylimidazo[1,2-a]pyridin-3-yl)-N-(2,2,2-trifluoroethyl)benzamide], the IC50 on SIK3 was 10 to 100 nM; against SIK2, 100 to 500 nM; against SIK1, greater than 500 nM.
On the same counts, the results for `COc1cc(-c2cnc3cc(C(C)(C)C#N)ccn23)cc(OC(F)F)c1C(=O)N1CCS(=O)(=O)CC1` [Cpd 38, 2-[3-[3-(difluoromethoxy)-4-(1,1-dioxo-1,4-thiazinane-4-carbonyl)-5-methoxy-phenyl]imidazo[1,2-a]pyridin-7-yl]-2-methyl-propanenitrile] are greater than 500 nM, greater than 500 nM and greater than 500 nM.
On the same counts, the results for `CCN(C)C(=O)c1c(OC)cc(-c2cnc3cc(C(C)(C)C#N)ccn23)cc1OC(F)F` [Cpd 40, 4-[7-(1-cyano-1-methyl-ethyl)imidazo[1,2-a]pyridin-3-yl]-2-(difluoromethoxy)-N-ethyl-6-methoxy-N-methyl-benzamide] are greater than 500 nM, greater than 500 nM and greater than 500 nM.
In the case of `COc1cc(-c2cnc3cc(C(C)(C)C#N)ccn23)cc(OC(F)F)c1C(=O)N1CCC(O)CC1` [Cpd 41, 2-[3-[3-(difluoromethoxy)-4-(4-hydroxypiperidine-1-carbonyl)-5-methoxy-phenyl]imidazo[1,2-a]pyridin-7-yl]-2-methyl-propanenitrile], the IC50 against SIK3, against SIK2 and against SIK1 was greater than 500 nM in each case.
For the molecule `COc1cc(-c2cnc3cc(C(C)(C)C#N)ccn23)cc(OC(F)F)c1C(=O)NCCN1CCOCC1` [Cpd 42, 4-[7-(1-cyano-1-methyl-ethyl)imidazo[1,2-a]pyridin-3-yl]-2-(difluoromethoxy)-6-methoxy-N-(2-morpholinoethyl)benzamide], the IC50 on SIK3 is 100 to 500 nM; against SIK2, greater than 500 nM; against SIK1, greater than 500 nM.
As for `COc1cc(-c2cnc3cc(C(C)(C)C#N)ccn23)cc(OC(F)F)c1C(=O)NC1COC1` [Cpd 43, 4-[7-(1-cyano-1-methyl-ethyl)imidazo[1,2-a]pyridin-3-yl]-2-(difluoromethoxy)-6-methoxy-N-(oxetan-3-yl)benzamide], the values for the concentration for half-maximal inhibition (IC50) on SIK3, against SIK2 and against SIK1 were 10 to 100 nM, greater than 500 nM and greater than 500 nM, respectively.
With `COc1cc(-c2cnc3cc(C(C)(C)C#N)ccn23)cc(OC(F)F)c1C(=O)NCCCO` [Cpd 44, 4-[7-(1-cyano-1-methyl-ethyl)imidazo[1,2-a]pyridin-3-yl]-2-(difluoromethoxy)-N-(3-hydroxypropyl)-6-methoxy-benzamide], the IC50 against SIK3 was 10 to 100 nM; against SIK2, greater than 500 nM; against SIK1 it was greater than 500 nM.
As for `COCCCNC(=O)c1c(OC)cc(-c2cnc3cc(C(C)(C)C#N)ccn23)cc1OC(F)F` [Cpd 45, 4-[7-(1-cyano-1-methyl-ethyl)imidazo[1,2-a]pyridin-3-yl]-2-(difluoromethoxy)-6-methoxy-N-(3-methoxypropyl)benzamide], the IC50 is 100 to 500 nM on SIK3, greater than 500 nM on SIK2 and greater than 500 nM on SIK1.
For the molecule `COc1cc(-c2cnc3cc(C(C)(C)C#N)ccn23)cc(OC(F)F)c1C(=O)N1CCC(OC)CC1` [Cpd 46, 2-[3-[3-(difluoromethoxy)-5-methoxy-4-(4-methoxypiperidine-1-carbonyl)phenyl]imidazo[1,2-a]pyridin-7-yl]-2-methyl-propanenitrile], the IC50 at SIK3, at SIK2 and against SIK1 was greater than 500 nM throughout.
On to `COc1cc(-c2cnc3cc(C(C)(C)C#N)ccn23)cc(OC(F)F)c1C(=O)N1CCC(F)(F)C1` [Cpd 47, 2-[3-[3-(difluoromethoxy)-4-(3,3-difluoropyrrolidine-1-carbonyl)-5-methoxy-phenyl]imidazo[1,2-a]pyridin-7-yl]-2-methyl-propanenitrile], for which the results for the IC50 at SIK3, on SIK2 and on SIK1 were 10 to 100 nM, greater than 500 nM and greater than 500 nM, respectively.
Turning to `COc1cc(-c2cnc3cc(C(C)(C)C#N)ccn23)cc(OC(F)F)c1C(=O)N1CCOCC1` [Cpd 48, 2-[3-[3-(difluoromethoxy)-5-methoxy-4-(morpholine-4-carbonyl)phenyl]imidazo[1,2-a]pyridin-7-yl]-2-methyl-propanenitrile], the IC50 against SIK3, against SIK2 and at SIK1 was greater than 500 nM each time.
Turning to `COc1cc(-c2cnc3cc(C(C)(C)C#N)ccn23)cc(OC(F)F)c1C(=O)N1CCN(C)CC1` [Cpd 49, 2-[3-[3-(difluoromethoxy)-5-methoxy-4-(4-methylpiperazine-1-carbonyl)phenyl]imidazo[1,2-a]pyridin-7-yl]-2-methyl-propanenitrile], the IC50 on SIK3, on SIK2 and against SIK1 was greater than 500 nM throughout.
With `COc1cc(-c2cnc3cc(C(C)(C)C#N)ccn23)cc(OC(F)F)c1C(=O)N1CC(O)C1` [Cpd 50, 2-[3-[3-(difluoromethoxy)-4-(3-hydroxyazetidine-1-carbonyl)-5-methoxy-phenyl]imidazo[1,2-a]pyridin-7-yl]-2-methyl-propanenitrile], the IC50 is 100 to 500 nM on SIK3, greater than 500 nM on SIK2 and greater than 500 nM against SIK1.
Turning to `COc1cc(-c2cnc3cc(C(C)(C)C#N)ccn23)cc(OC(F)F)c1C(=O)N1CC2(COC2)C1` [Cpd 51, 2-[3-[3-(difluoromethoxy)-5-methoxy-4-(2-oxa-6-azaspiro[3.3]heptane-6-carbonyl)phenyl]imidazo[1,2-a]pyridin-7-yl]-2-methyl-propanenitrile], the IC50 at SIK3 is 10 to 100 nM; on SIK2 it was greater than 500 nM; against SIK1, greater than 500 nM.
For the molecule `COc1cc(-c2cnc3cc(C(C)(C)C#N)ccn23)cc(OC(F)F)c1C(=O)NCc1ccn(C)n1` [Cpd 52, 4-[7-(1-cyano-1-methyl-ethyl)imidazo[1,2-a]pyridin-3-yl]-2-(difluoromethoxy)-6-methoxy-N-[(1-methylpyrazol-3-yl)methyl]benzamide], the IC50 against SIK3, against SIK2 and at SIK1 was greater than 500 nM throughout.
For `COc1cc(-c2cnc3cc(C(C)O)ccn23)cc(OC)c1C(=O)NCC(F)(F)F` (stereo not drawn) [Cpd 54, 4-[7-(1-hydroxyethyl)imidazo[1,2-a]pyridin-3-yl]-2,6-dimethoxy-N-(2,2,2-trifluoroethyl)benzamide], the IC50 on SIK3 was 10 to 100 nM; on SIK2, greater than 500 nM; at SIK1 it was greater than 500 nM.
As for `COc1cc(-c2cnc3cc(C(C)(C)N)ccn23)cc(OC)c1C(=O)NCC(F)(F)F` [Cpd 55, 4-[7-(1-amino-1-methyl-ethyl)imidazo[1,2-a]pyridin-3-yl]-2,6-dimethoxy-N-(2,2,2-trifluoroethyl)benzamide], the IC50 against SIK3 was 10 to 100 nM; at SIK2, greater than 500 nM; at SIK1, greater than 500 nM.
As to `COc1cc(-c2cnc3cc(C(C)(C)C(C)=O)ccn23)cc(OC)c1C(=O)NCC(F)(F)F` [Cpd 56, 4-[7-(1,1-dimethyl-2-oxo-propyl)imidazo[1,2-a]pyridin-3-yl]-2,6-dimethoxy-N-(2,2,2-trifluoroethyl)benzamide], the IC50 against SIK3 was 10 to 100 nM; at SIK2 it was greater than 500 nM; at SIK1, greater than 500 nM.
For `COc1cc(-c2cnc3cc(C(C)(C)O)ccn23)cc(OC)c1C(=O)NCC(F)(F)F` [Cpd 57, 4-[7-(1-hydroxy-1-methyl-ethyl)imidazo[1,2-a]pyridin-3-yl]-2,6-dimethoxy-N-(2,2,2-trifluoroethyl)benzamide], the half-maximal inhibitory concentration (IC50) on SIK3 is 10 to 100 nM; on SIK2 it was greater than 500 nM; against SIK1 it was greater than 500 nM.
On to `COc1cc(-c2cnc3cc(C4CN(C(=O)OC(C)(C)C)C4)ccn23)cc(OC)c1C(=O)NCC(F)(F)F` [Cpd 58, tert-butyl 3-[3-[3,5-dimethoxy-4-(2,2,2-trifluoroethylcarbamoyl)phenyl]imidazo[1,2-a]pyridin-7-yl]azetidine-1-carboxylate], for which the IC50 against SIK3 lay within 10 to 100 nM; on SIK2, 100 to 500 nM; on SIK1, 100 to 500 nM.
For `COc1cc(-c2cnc3cc(C4CN(C(=O)OC(C)(C)C)C4)ccn23)cc(OC(F)F)c1C(=O)NC1CC1` [Cpd 59, tert-butyl 3-[3-[4-(cyclopropylcarbamoyl)-3-(difluoromethoxy)-5-methoxy-phenyl]imidazo[1,2-a]pyridin-7-yl]azetidine-1-carboxylate], the IC50 against SIK3 lay within 0.01 to 10 nM; against SIK2 it was 10 to 100 nM; against SIK1, 10 to 100 nM.
